In ChEMBL document CHEMBL1129317, “Novel selective and partial agonists of 5-HT3 receptors. Part 1. Synthesis and biological evaluation of piperazinopyrrolothienopyrazines” (J Med Chem, 1996):

Columns and labels:
[1] = biological target: T1, 5-hydroxytryptamine receptor 2C (Homo sapiens, UniProt P28335); test: Binding affinity towards 5-hydroxytryptamine 2C receptor
T1 sequence (P28335 whole entry): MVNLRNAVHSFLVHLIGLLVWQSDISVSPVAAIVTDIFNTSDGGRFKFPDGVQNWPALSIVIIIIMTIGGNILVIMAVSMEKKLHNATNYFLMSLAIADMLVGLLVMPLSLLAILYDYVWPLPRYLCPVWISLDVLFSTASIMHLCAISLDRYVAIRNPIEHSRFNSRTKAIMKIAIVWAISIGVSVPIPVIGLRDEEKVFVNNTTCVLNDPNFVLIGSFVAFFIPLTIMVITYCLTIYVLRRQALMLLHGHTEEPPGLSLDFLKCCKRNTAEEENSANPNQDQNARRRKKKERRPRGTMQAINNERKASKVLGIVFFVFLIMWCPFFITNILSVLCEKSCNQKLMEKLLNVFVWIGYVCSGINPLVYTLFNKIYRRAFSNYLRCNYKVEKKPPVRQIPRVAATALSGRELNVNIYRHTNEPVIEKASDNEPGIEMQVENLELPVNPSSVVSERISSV

[2] = biological target: 5-hydroxytryptamine receptor 1B (Rattus norvegicus, UniProt P28564); test: Binding affinity for 5-hydroxytryptamine 1B receptor
5-hydroxytryptamine receptor 1B, sequence (P28564 whole entry): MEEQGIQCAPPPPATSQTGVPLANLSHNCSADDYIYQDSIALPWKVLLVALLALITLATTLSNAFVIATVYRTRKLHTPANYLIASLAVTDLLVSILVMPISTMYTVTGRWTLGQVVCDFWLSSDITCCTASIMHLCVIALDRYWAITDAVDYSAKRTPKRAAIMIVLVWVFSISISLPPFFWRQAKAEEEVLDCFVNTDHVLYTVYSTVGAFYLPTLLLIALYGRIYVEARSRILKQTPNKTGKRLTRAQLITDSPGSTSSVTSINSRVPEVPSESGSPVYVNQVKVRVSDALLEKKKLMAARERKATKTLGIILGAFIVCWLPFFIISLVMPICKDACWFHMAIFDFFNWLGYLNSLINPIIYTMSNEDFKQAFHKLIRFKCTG

[3] = biological target: T2, 5-hydroxytryptamine receptor 1A (Homo sapiens, UniProt P08908); test: Binding affinity for 5-hydroxytryptamine 1A receptor
T2 sequence (P08908 whole entry): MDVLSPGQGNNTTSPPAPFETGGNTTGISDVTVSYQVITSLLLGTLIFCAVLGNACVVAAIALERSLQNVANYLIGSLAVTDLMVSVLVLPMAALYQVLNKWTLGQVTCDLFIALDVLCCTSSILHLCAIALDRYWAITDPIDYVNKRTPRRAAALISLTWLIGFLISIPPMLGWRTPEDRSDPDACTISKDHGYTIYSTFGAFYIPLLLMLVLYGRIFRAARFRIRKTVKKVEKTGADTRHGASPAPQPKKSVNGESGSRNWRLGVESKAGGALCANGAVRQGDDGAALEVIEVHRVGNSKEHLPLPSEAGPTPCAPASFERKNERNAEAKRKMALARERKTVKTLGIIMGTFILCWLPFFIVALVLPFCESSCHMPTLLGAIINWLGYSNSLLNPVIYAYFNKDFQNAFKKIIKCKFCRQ

[4] = biological target: 5-hydroxytryptamine receptor 2A (Bos taurus, UniProt Q75Z89); test: Binding affinity towards 5-hydroxytryptamine 2A receptor
5-hydroxytryptamine receptor 2A, sequence (Q75Z89 whole entry): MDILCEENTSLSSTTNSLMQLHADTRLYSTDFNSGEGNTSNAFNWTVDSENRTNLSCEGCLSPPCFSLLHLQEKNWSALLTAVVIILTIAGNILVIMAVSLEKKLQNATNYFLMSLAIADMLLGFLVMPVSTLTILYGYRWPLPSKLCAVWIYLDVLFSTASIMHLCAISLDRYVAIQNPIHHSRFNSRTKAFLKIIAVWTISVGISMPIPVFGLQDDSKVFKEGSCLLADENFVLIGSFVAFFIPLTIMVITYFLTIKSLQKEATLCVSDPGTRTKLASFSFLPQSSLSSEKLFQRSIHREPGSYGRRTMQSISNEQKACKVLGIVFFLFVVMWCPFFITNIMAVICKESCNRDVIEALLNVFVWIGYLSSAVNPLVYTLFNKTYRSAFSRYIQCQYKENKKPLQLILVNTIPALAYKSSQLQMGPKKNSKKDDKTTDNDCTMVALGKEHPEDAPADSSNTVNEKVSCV

[5] = biological target: T3, Serotonin 3 (5-HT3) receptor (Rattus norvegicus, UniProt P35563+Q9JJ16); test: Binding affinity towards 5-hydroxytryptamine 3 receptor; assay type: protein-complex assay
T3 sequence (P35563 whole entry): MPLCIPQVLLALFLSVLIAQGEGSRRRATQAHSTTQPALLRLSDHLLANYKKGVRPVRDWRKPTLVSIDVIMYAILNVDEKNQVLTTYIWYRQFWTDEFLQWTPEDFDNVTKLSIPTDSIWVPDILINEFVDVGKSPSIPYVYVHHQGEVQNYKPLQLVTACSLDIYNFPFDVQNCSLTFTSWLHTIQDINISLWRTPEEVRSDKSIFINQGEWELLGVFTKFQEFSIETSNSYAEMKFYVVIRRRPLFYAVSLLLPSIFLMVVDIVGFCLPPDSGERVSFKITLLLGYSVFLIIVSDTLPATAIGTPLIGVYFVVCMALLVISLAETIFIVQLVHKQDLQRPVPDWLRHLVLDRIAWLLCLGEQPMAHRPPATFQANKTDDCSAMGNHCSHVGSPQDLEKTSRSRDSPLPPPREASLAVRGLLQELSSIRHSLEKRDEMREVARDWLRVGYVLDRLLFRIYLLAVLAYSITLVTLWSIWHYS
T3 sequence (Q9JJ16 whole entry): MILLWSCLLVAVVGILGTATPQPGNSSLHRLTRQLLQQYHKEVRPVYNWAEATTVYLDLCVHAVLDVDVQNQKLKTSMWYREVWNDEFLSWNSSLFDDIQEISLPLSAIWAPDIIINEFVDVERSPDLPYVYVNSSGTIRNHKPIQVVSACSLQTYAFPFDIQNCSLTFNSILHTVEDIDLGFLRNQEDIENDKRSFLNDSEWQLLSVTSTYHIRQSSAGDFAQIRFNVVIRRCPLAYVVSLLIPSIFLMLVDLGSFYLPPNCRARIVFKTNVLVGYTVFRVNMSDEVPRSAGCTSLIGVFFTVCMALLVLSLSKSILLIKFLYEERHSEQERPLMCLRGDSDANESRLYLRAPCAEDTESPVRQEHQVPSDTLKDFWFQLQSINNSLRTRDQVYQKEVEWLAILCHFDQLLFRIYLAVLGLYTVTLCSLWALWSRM

[6] = biological target: 5-hydroxytryptamine receptor 1D (Sus scrofa, UniProt P79400); test: Binding affinity for 5-hydroxytryptamine 1D receptor
5-hydroxytryptamine receptor 1D, sequence (P79400 whole entry): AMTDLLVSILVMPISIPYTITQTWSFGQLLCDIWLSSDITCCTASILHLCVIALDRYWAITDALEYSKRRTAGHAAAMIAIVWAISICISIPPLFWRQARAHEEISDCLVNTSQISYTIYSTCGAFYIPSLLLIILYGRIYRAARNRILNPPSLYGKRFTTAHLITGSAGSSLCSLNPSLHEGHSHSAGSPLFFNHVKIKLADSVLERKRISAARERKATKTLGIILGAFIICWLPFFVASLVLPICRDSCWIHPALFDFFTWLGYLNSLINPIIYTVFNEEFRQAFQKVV

| Structure (SMILES) | IC50 [1] [µM] | IC50 [2] [µM] | IC50 [3] [µM] | IC50 [4] [µM] | IC50 [5] [µM] | IC50 [6] [µM] |
| --- | --- | --- | --- | --- | --- | --- |
| FC(F)(F)c1ccccc1CCN1CCN(c2nc3ccsc3n3cccc23)CC1 | 1.07 | 18.6 | 0.0724 | 5.13 | 269 | 200 |
| O=C(c1ccc(F)cc1)N1CCN(c2nc3ccsc3n3cccc23)CC1 | > 100 | 112 | 102 | 151 | 1050 | 129 |
| CN1CCN(c2nc3sc(-c4ccccc4)cc3n3cccc23)CC1 | 2.19 | > 100 | 15.5 | 13.8 | 21.4 | 60.3 |
| c1ccc(CN2CCN(c3nc4scc(-c5ccccc5)c4n4cccc34)CC2)cc1 | 2.63 | 24 | 25.7 | 63.1 | 6.76 | 30.9 |
| c1ccc(CN2CCN(c3nc4cc(-c5ccccc5)sc4n4cccc34)CC2)cc1 | 468 | > 100 | > 100 | 339 | 589 | > 100 |
| Cc1sc2c(nc(N3CCN(Cc4ccccc4)CC3)c3cccn32)c1C | 155 | > 100 | 126 | 174 | 3.63 | 525 |
| FC(F)(F)c1cccc(N2CCN(c3nc4sccc4n4cccc34)CC2)c1 | 5.89 | 7.41 | 12.6 | 832 | 74.1 | 57.5 |
| CCCN1CCN(c2nc3ccsc3n3cccc23)CC1 | 0.347 | 1.1 | 0.0933 | 1.07 | 0.0603 | 0.135 |
| CCOC(=O)CN1CCN(c2nc3ccsc3n3cccc23)CC1 | 61.7 | 0.676 | 0.257 | 70.8 | 4.07 | 100 |
| C1=CCN(c2nc3ccsc3n3cccc23)CC1 | > 100 |  | 457 | 112 | > 100 | > 100 |
| CCOC(=O)N1CCN(c2nc3ccsc3n3cccc23)CC1 | > 100 |  | 33.9 | 123 | 204 | 513 |
| Clc1ccc(CN2CCN(c3nc4ccsc4n4cccc34)CC2)c(Cl)c1 | 0.851 | 4.68 | 0.661 | 7.41 | 0.0166 | 3.09 |
| c1ccc(C2CCN(c3nc4ccsc4n4cccc34)CC2)cc1 | > 100 | > 100 | > 100 | > 100 | > 100 | > 100 |
| Clc1ccc(CN2CCN(c3nc4sccc4n4cccc34)CC2)cc1Cl | 8.71 | 33.9 | 10.2 | 191 | 1.17 | 257 |
| CN1CCN(c2nc3cc(C(F)(F)F)ccc3n3cccc23)CC1 |  | 0.339 | 0.0468 | 18.6 | 1.32 | 0.123 |
| c1ccc(-c2cc3nc(N4CCNCC4)c4cccn4c3s2)cc1 | 10 | > 100 |  | 302 | 2.45 | 35.5 |
| C(=C\c1ccccc1)/CN1CCN(c2nc3ccsc3n3cccc23)CC1 | 0.708 | 0.646 | 0.0832 | 0.851 | 0.2 | 105 |
| c1ccc(N2CCN(c3nc4ccsc4n4cccc34)CC2)cc1 | > 100 |  | > 100 | > 100 | > 100 | > 100 |

| Structure (SMILES) | IC50 [1] [µM] | IC50 [2] [µM] | IC50 [3] [µM] | IC50 [4] [µM] | IC50 [5] [µM] | IC50 [6] [µM] |
| --- | --- | --- | --- | --- | --- | --- |
| CN1CCN(c2nc3sccc3n3cccc23)CC1 |  |  | 0.0525 | 2.34 | 0.24 | 0.912 |
| Clc1ccc(C(c2ccccc2)N2CCN(c3nc4ccsc4n4cccc34)CC2)cc1 (centres undefined) | 282 | > 100 | 204 | > 100 | 1.38 | > 100 |
| Clc1ccc(CN2CCN(c3nc4ccsc4n4cccc34)CC2)cc1Cl | 3.89 | 4.27 | 1.35 | 17.4 | 2.29 | 44.7 |
| C=CCN1CCN(c2nc3ccsc3n3cccc23)CC1 | 0.17 | 0.575 | 0.12 | 0.851 | 0.00263 | 0.38 |
| c1cc2c(N3CCN(Cc4ccc5c(c4)OCO5)CC3)nc3sccc3n2c1 | 2.57 | 7.08 |  | 24.5 | 0.00102 | 20 |
| FC(F)(F)c1cccc(N2CCN(c3nc4scc(-c5ccccc5)c4n4cccc34)CC2)c1 | 1.07 | 19.1 | 17.8 | 87.1 | 2.95 | 35.5 |
| O=C(CN1CCN(c2nc3ccsc3n3cccc23)CC1)N1CCCC1 | 8.32 | > 100 | 0.407 | 14.5 | 1.48 | 251 |
| FC(F)(F)c1cccc(N2CCN(c3nc4cc(-c5ccccc5)sc4n4cccc34)CC2)c1 | 214 | 1380 | > 100 | > 100 | > 100 | > 100 |
| CN1CCN(c2nc3ccsc3n3cccc23)CC1 | 0.24 | 11.2 | 0.117 | 1.29 | 0.813 | 0.398 |
| Fc1ccc(CN2CCN(Cc3nc4ccsc4n4cccc34)CC2)cc1 | 14.1 | 19.5 | 7.76 | 13.8 | 18.2 | 38 |
| C[N+]1(Cc2ccccc2)CCN(c2nc3ccsc3n3cccc23)CC1 | 15.5 | 40.7 | 7.76 | 17.4 | 0.126 | > 100 |
| FC(F)(F)c1cccc(N2CCN(c3nc4ccsc4n4cccc34)CC2)c1 | 0.155 |  | 0.288 | 1.78 | 1.58 | 1.26 |
| Clc1ccc(CN2CCN(c3nc4sccc4n4cccc34)CC2)c(Cl)c1 | 19.1 | 63.1 | 31.6 | 479 | 4.17 | 25.1 |
| c1cc2c(N3CCOCC3)nc3ccsc3n2c1 | 41.7 | > 100 | 32.4 | 39.8 | 20.9 | 93.3 |
| c1cc2c(N3CCN(CC4CC4)CC3)nc3ccsc3n2c1 | 0.355 | 10.2 | 0.0617 | 0.933 | 0.0603 | 2.57 |
| CN1CCN(c2nc3cc(-c4ccccc4)sc3n3cccc23)CC1 | 11.7 | 14.8 | 4.9 | 7.41 | 19.1 | 87.1 |
| c1ccc2nc(N3CCNCC3)ccc2c1 [QUIPAZINE] | 0.0617 | 7.08 |  | 3.47 |  | 3.72 |
